Source: patent US20240194290A1, “HIDDEN ANTIBIOTICS IN THE HUMAN PROTEOME” (THE TRUSTEES OF THE UNIVERSITY OF PENNSYLVANIA, priority 2021, published 2024)
Ends that are not written are not given here.

Tests used:
Assay in all cases: Outer membrane permeabilization (NPN uptake) assay
Conditions in all cases: peptides at MIC
P. aeruginosa PAO1 = assay type: cell-based, Pseudomonas aeruginosa
Description: (§1) FIG. 10. Membrane permeabilization and depolarization assays for several bacterial strains. […] FIG. 10B: Cytoplasmic membrane depolarization assays performed against P. aeruginosa PAO1 and the gut commensal B. fragilis ATCC25285.
(§2) Methods: Membrane depolarization assays. The cytoplasmic membrane depolarization activity of the peptides was determined by measurements of fluorescence of the membrane potential-sensitive dye, DiSC3(5). Briefly, A. baumannii ATCC19606, P. aeruginosa PAO1 and B. fragilis ATCC25285 were grown at 37° C. with agitation until they reached mid-log phase (OD600=0.5). […] Thereafter, the cells (100 μL) were incubated for 15 min with 20 nmol L^−1 of DiSC3(5) until a stable reduction of fluorescence was achieved, indicating the incorporation of the dye into the bacterial membrane. Membrane depolarization was then monitored by observing the change in the fluorescence emission intensity of the membrane potential-sensitive dye, DiSC3(5) (λex=622 nm, λem=670 nm), after the addition of peptides (100 μL solution at MIC values). […] The membrane permeability of the peptides was determined by using the N-phenyl-1-napthylamine (NPN) uptake assay. […] The background fluorescence was recorded at λex=350 nm and λem=420 nm. […]

B. fragilis ATCC25285 = assay type: cell-based, Bacteroides fragilis
Description: as §1, §2

S. epidermidis = assay type: cell-based, Staphylococcus epidermidis
Description: as §1, §2

Measured: outer membrane permeabilization (NPN)

SKEMFPRSFIKLLRSKVSRFLRPYK [SCUB1-SKE25]
permeabilized: all assays above
